± gives the expanded uncertainty stated by the source.
Tests used:
[1] = 293.15 K; 101.33 kPa; Liquid
[2] = refractive index (Na D-line) (dimensionless); conditions: 293.15 K; 101.33 kPa; Liquid; Standard Abbe refractometry

mass density [1] [kg/m3]	refractive index [2]	SMILES
804.8 ± 1.3	1.4155 ± 0.0008	CC(C)CC(=O)CC(C)C [2,6-dimethyl-4-heptanone]
822.7 ± 1.2	1.4194 ± 0.0008	CCC(=O)CCC(C)C [6-methyl-3-heptanone]
887.5 ± 1	1.4074 ± 0.0008	CC(=O)CCC(C)C [5-methyl-2-hexanone]
992.7 ± 0.6	1.3811 ± 0.0008	CCC(=O)O [propanoic acid]

Reference: the NIST ThermoML archive (doi:10.1016/j.fluid.2006.10.004)
